Reference: patent publication US4503043A, “Substituted acyl derivatives of octahydro-1H-isoindole-1-carboxylic acids” (Warner-Lambert Company, priority 1982, dated 1985)
Counter-ions that a name gives are not always drawn.

Molecular target: T1, guinea pig serum ACE (angiotensin converting enzyme) (Cavia porcellus, UniProt H0UWL7)
T1 construct: ACE from guinea pig serum; from tissue; host or cells: guinea pig serum
T1 sequence (H0UWL7 33-1302): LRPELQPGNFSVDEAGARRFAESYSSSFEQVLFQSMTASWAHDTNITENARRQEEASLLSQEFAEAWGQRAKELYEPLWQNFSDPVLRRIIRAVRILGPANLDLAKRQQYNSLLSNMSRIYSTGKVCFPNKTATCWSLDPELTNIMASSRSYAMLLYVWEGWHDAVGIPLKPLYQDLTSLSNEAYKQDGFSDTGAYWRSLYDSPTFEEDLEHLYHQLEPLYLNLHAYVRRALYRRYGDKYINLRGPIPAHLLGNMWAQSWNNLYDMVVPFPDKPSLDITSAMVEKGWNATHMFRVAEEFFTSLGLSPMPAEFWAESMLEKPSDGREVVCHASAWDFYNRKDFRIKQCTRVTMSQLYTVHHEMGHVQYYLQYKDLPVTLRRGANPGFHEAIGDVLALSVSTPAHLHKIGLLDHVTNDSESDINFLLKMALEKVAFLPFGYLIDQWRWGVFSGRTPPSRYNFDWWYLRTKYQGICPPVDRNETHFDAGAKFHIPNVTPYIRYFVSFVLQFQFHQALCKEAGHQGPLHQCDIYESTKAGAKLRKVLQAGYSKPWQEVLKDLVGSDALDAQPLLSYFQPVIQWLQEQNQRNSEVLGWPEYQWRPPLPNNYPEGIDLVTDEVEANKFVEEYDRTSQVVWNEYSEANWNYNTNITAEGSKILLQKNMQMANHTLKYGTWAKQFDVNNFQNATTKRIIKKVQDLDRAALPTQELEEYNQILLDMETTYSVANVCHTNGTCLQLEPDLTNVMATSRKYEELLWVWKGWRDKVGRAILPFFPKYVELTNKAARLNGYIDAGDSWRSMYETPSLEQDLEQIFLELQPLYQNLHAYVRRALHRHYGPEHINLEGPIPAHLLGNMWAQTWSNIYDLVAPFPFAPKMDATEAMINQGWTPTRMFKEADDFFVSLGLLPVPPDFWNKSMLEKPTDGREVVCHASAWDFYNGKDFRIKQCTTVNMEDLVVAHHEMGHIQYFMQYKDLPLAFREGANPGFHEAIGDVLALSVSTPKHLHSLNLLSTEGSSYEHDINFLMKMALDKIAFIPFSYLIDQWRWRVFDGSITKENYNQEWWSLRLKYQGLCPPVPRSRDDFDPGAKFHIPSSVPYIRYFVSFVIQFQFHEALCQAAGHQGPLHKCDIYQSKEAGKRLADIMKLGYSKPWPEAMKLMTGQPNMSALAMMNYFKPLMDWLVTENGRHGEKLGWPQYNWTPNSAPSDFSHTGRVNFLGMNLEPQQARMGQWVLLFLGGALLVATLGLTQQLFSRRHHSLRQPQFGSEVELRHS
Assay: In vitro ACE Assay (angiotensin converting enzyme inhibitory activity)
Assay type: biochemical
Conditions: 10 min preincubation, substrate 3H-hippuryl-glycylglycine, 60 min at 37° C.
Method: In vitro ACE Assay: Angiotensin converting enzyme (ACE) inhibitory activity is determined by assaying guinea pig serum ACE in the presence and absence of the test compound. ACE from guinea pig serum and the test compounds are preincubated for 10 minutes before the addition of the labelled substrate ^3 H-hippuryl-glycylglycine. After a 60 minute incubation at 37° C. the reaction is stopped by the addition of 0.1N HCl. ACE cleaves the hippuryl-glycyl bond to form the dipeptide glycyl-glycine and ^3 H-hippuric acid. The ^3 H-hippuric acid is then extracted with ethyl acetate and the ACE inhibition of a given sample calculated on the basis of the ^3 H-hippuric acid generated.

SMILES | IC50 [nM]
CC(=O)SCCC(=O)N1CC2CCCCC2C1C(=O)O (centres unmarked) [Example 1, 2-[3-(Acetylthio)-1-oxopropyl]octahydro-1H-isoindole-1-carboxylic acid] | 1200
O=C(O)C1C2CCCCC2C(=O)N1C(=O)CCS (centres unmarked) [Example 6, 2-[3-Mercapto-1-oxopropyl]octahydro-3-oxo-1H-isoindole-1-carboxylic acid, dicyclohexylamine salt] | 13
O=C(O)C1C2CCCCC2CN1C(=O)CCS (centres unmarked) [Example 2, 2-(3-Mercaptopropanoyl)octahydro-1H-isoindole-1-carboxylic acid, dicyclohexylamine salt] | 24
CC(CS)C(=O)N1CC2CCCCC2C1C(=O)O (centres unmarked) [Example 4, 2-[3-Mercapto-2-methyl-1-oxopropyl]octahydro-1H-isoindole-1-carboxylic acid] | 28
CC(=O)SCC(C)C(=O)N1CC2CCCCC2C1C(=O)O (centres unmarked) [Example 3, 2-[3-(Acetylthio)-2-methyl-1-oxopropyl]octahydro-1H-isoindole-1-carboxylic acid] | 420
CC(=O)SCCC(=O)N1C(=O)C2CCCCC2C1C(=O)O (centres unmarked) [Example 5, 2-[3-Acetylthio-1-oxopropyl]octahydro-3-oxo-1H-isoindole-1-carboxylic acid, dicyclohexylamine salt] | 660
CC(CS)C(=O)N1C(=O)C2CCCCC2C1C(=O)O (centres unmarked) [Example 8, 2-[3-(Mercapto-2-methyl-1-oxopropyl]octahydro-3-oxo-1H-isoindole-1-carboxylic acid, dicyclohexylamine salt] | 14

Other lines, results leading:

IC50 [nM] | SMILES
340 | CCOC(=O)[C@H](CCc1ccccc1)N[C@@H](C)C(=O)N1C(=O)C2CCCCC2C1C(=O)O (some centres unmarked) [Example 14, 2-[2-[(1-carbethoxy-3-phenylpropyl)amino]-1-oxopropyl]-octahydro-3-oxo-1H-isoindole-1-carboxylic acid, hydrochloride]
2.6 | CC(NC(CCc1ccccc1)C(=O)O)C(=O)N1CC2CCCCC2C1C(=O)O (centres unmarked) [Example 13, 2-[2-[(1-Carboxy-3-phenylpropyl)amino]-1-oxopropyl]-octahydro-1H-isoindole-1-carboxylic acid]
170 | CCOC(=O)C(CCc1ccccc1)NC(C)C(=O)N1CC2CCCCC2C1C(=O)O (centres unmarked) [Example 12, 2-[2-[(1-Carbethoxy-3-phenylpropyl)amino]-1-oxopropyl]-octahydro-1H-isoindole-1-carboxylic acid, hydrochloride]
280 | CC(=O)SCC(C)C(=O)N1C(=O)C2CCCCC2C1C(=O)O (centres unmarked) [Example 7, 2-[3-(Acetylthio)-2-methyl-1-oxopropyl]octahydro-3-oxo-1H-isoindole-1-carboxylic acid, dicyclohexylamine salt]
